Where two headings read alike, the source gives them in different places.
What was measured:
FADD−/− Jurkat cells = assay: TNF-induced programmed cell necrosis inhibition, Cell Titer-Glo viability; format: cell-based
Source text: (§1) The adopted biological assay protocol was: the programmed necroptosis effect of compounds on TNF-induced in FADD (Fas-Associated Death Domain) deficient Jurkat cells and L929 cells.
(§2) In order to verify the inhibitory effect of the compounds of the present invention on programmed cell necrosis at the cellular level, cell types closely related to the RIP1 pathway, namely FADD deficient Jurkat cells (human peripheral blood leukemia T cell line) and L929 cells, were selected. Two different stimulation methods were used: tumor necrosis factor (TNFα) used alone, or TNFα used in combination with mitochondria-derived cysteine aspartate activator (SMAC). Cells viability was calculated by detecting chemiluminescence values, and the biological activity of the compound for inhibiting programmed cell necrosis can be obtained.
(§3) Methods: FADD deficient Jurkat cells: FADD deficient Jurkat cells (human peripheral blood leukemia T cell line) were cultured in vitro. After growing to the logarithmic growth phase, the cells were collected, centrifuged at 1000 rpm for 5 min, the supernatant was discarded, and the cell concentration was adjusted to 2.5×10^5/mL. Cells were seeded into 384-well plates, 40 μl per well. 5 μL of Smac (50 nM) diluted in cell culture medium and 5 μL of each compound were added to the corresponding wells. After pretreatment at 37° C. for 1 h, 5 μL of TNFα (50 ng/mL) diluted in cell culture medium was added to each well of the stimulation group, and 5 μL of the culture medium was added to the control group. The plate was cultured in a cell incubator (37° C., 5% CO2) for 14 h, and 15 μl of Cell Titer-Glo solution was added to each well, then incubated for 30 min at room temperature, and intracellular ATP level was measured by detecting luminescence. The unstimulated DMSO control wells were taken as 100% cell viability. L929 cells: The L929 cells (mouse fibroblasts) were cultured in vitro, digested and diluted to 6.25×10^4/ml, and the cells were seeded into 384-well plates, 40 μl per well. The plate was placed in a cell incubator (37° C., 5% CO2) for 12 hours. 5 μL of Smac (500 nM) diluted in cell culture medium and 5 μL of each compound were added to the corresponding wells. After pretreatment at 37° C. for 1 h, 5 μL of TNFα (500 ng/mL) diluted in cell culture medium was added to each well of the stimulation group, and 5 μL of the culture medium was added to the control group. After the plate was cultured for 14 h in a cell incubator (37° C., 5% CO2), 15 μl of Cell Titer-Glo solution was added to each well. The plate was incubated at room temperature for 30 min, and intracellular ATP level was measured by detecting luminescence. The unstimulated DMSO control wells were taken as 100% cell viability. EC50 values of the compounds were calculated using Prism Graphpad statistical software.
FADD deficient Jurkat cells: FADD deficient Jurkat cells (human peripheral blood leukemia T cell line) were cultured in vitro. After growing to the logarithmic growth phase, the cells were collected, centrifuged at 1000 rpm for 5 min, the supernatant was discarded, and the cell concentration was adjusted to 2.5×10^5/mL. Cells were seeded into 384-well plates, 40 μl per well. 5 μL of Smac (50 nM) diluted in cell culture medium and 5 μL of each compound were added to the corresponding wells. After pretreatment at 37° C. for 1 h, 5 μL of TNFα (50 ng/mL) diluted in cell culture medium was added to each well of the stimulation group, and 5 μL of the culture medium was added to the control group. After the plate was cultured in a cell incubator (37° C., 5% CO2) for 14 h, 15 μl of Cell Titer-Glo solution was added to each well. The mixture was incubated for 30 min at room temperature, and intracellular ATP level was measured by detecting luminescence. The unstimulated DMSO control wells were taken as 100% cell viability.

L929 cells = assay: as above; format: cell-based, mouse; conditions: read-out: EC50 inhibitory activity on programmed cell necrosis
Source text: as §1, §2, §3
L929 cells: The L929 cells (mouse fibroblasts) were cultured in vitro, digested and diluted to 6.25×10^4/ml, and the cells were seeded into 384-well plates, 40 μl per well. The plate was placed in a cell incubator (37° C., 5% CO2) for 12 hours. 5 μL of Smac (500 nM) diluted in cell culture medium and 5 μL of each compound were added to the corresponding wells. After pretreatment at 37° C. for 1 h, 5 μL of TNFα (500 ng/mL) diluted in cell culture medium was added to each well of the stimulation group, and 5 μL of the culture medium was added to the control group. After the plate was cultured for 14 h in a cell incubator (37° C., 5% CO2), and 15 μl of Cell Titer-Glo solution was added to each well, then incubated at room temperature for 30 min, and intracellular ATP level was measured by detecting luminescence. The unstimulated DMSO control wells were taken as 100% cell viability.

[1] = Homo sapiens, Jurkat, 14 h, TNFa + SM164, read-out: EC50 inhibitory activity on programmed cell necrosis
[2] = Homo sapiens, Jurkat, TNFa, read-out: EC50 inhibitory activity on programmed cell necrosis
[3] = Mus musculus, L929, 14 h, L929 cells (mouse), TNFa + SM164
[4] = Mus musculus, L929, L929 cells (mouse), TNFa

Row | Compound | EC50 (FADD−/− Jurkat cells; [1]) [µM] | EC50 (FADD−/− Jurkat cells; [2]) [µM] | EC50 (L929 cells; [3]) [µM] | EC50 (L929 cells; [4]) [µM] | EC50 (FADD−/− Jurkat cells; FADD−/− Jurkat cells (human), TNFa + SM164, read-out: EC50 inhibitory activity on programmed cell necrosis) [µM] | EC50 (FADD−/− Jurkat cells; FADD−/− Jurkat cells (human), TNFa, read-out: EC50 inhibitory activity on programmed cell necrosis) [µM] | EC50 (L929 cells; L929 cells (mouse), TNFa + SM164) [µM] | EC50 (L929 cells; L929 cells (mouse), TNFa) [µM]
1 | Cc1ccc([C@@H]2CCCN2C(=O)C(C)(C)Oc2ccc(Cl)cc2)cc1 (stereo in doubt) [QY-5-21] | 0.696 | 0.093 | 0.208 | 0.0599 | – | – | – | –
2 | CN1C(=O)NC(Cc2c[nH]c3c(Cl)cccc23)C1=O (stereo not shown) [Compound 7-Cl-O-Nec-1, reference compound] | – | – | – | – | 0.337 | 0.076 | 0.924 | 0.155
3 | Cc1noc([C@@H]2CCCN2C(=O)C(C)(C)Oc2ccccc2)n1 [QY-2-25] | > 10 | 6.18 | > 10 | 2.67 | – | – | – | –
4 | Cc1noc([C@@H]2CCCN2C(=O)C(C)(C)Oc2ccc(F)cc2)n1 [QY-2-26] | > 10 | 0.417 | 0.982 | 0.182 | – | – | – | –
5 | Cc1noc([C@@H]2CCCN2C(=O)C(C)(C)Oc2ccc(N(C)C)cc2)n1 [QY-2-27] | > 10 | 9.38 | > 10 | > 10 | – | – | – | –
6 | CC(C)(Oc1ccc(Cl)cc1)C(=O)N1CCC[C@H]1c1nnc(N)s1 [QY-2-34] | > 10 | > 10 | > 10 | > 10 | – | – | – | –
7 | Cc1nc([C@@H]2CCCN2C(=O)C(C)(C)Oc2ccc(Cl)cc2)sc1C [QY-2-38] | > 10 | 1.7 | > 10 | 1.55 | – | – | – | –
8 | CC(C)(Oc1ccc(Cl)cc1)C(=O)N1CCC[C@H]1c1nccs1 [QY-2-39] | > 10 | 1.06 | 8.92 | 1.9 | – | – | – | –
9 | Cc1csc([C@@H]2CCCN2C(=O)C(C)(C)Oc2ccc(Cl)cc2)n1 [QY-2-52] | 2.24 | 0.464 | 2.37 | 0.419 | – | – | – | –
10 | Cc1cc([C@@H]2CCCN2C(=O)C(C)(C)Oc2ccc(Cl)cc2)on1 [QY-2-53] | 1.34 | 0.199 | 1.17 | 0.172 | – | – | – | –
11 | COc1ccc(OC(C)(C)C(=O)N2CCC[C@H]2c2nc(C)no2)cc1 [QY-2-54] | > 10 | > 10 | > 10 | 6.19 | – | – | – | –
12 | Cc1noc([C@@H]2CCCN2C(=O)C(C)(C)Oc2ccc(C#N)cc2)n1 [QY-2-55] | 2.22 | 0.14 | 0.233 | 0.025 | – | – | – | –
13 | Cc1noc([C@@H]2CCCN2C(=O)C(C)(C)Oc2ccc(-c3ccccc3)cc2)n1 [QY-2-56] | > 10 | > 10 | > 10 | 2.12 | – | – | – | –
14 | Cc1noc([C@@H]2CCCN2C(=O)C(C)(C)Oc2ccc(I)cc2)n1 [QY-2-75] | 5.15 | 0.608 | > 10 | 2.45 | – | – | – | –
15 | Cc1noc([C@@H]2CCCN2C(=O)C(C)(C)Oc2ccc(OC(F)(F)F)cc2)n1 [QY-2-76] | 3.96 | > 10 | > 10 | > 10 | – | – | – | –
16 | Cc1ccc(OC(C)(C)C(=O)N2CCC[C@H]2c2nc(C)no2)cc1 [QY-2-77] | > 10 | 7.9 | > 10 | 4.26 | – | – | – | –

Source: patent publication US12662473B2, “Inhibitors for programmed cell necrosis and preparation method therefor and use thereof” (SHANGHAI INSTITUTE OF ORGANIC CHEMISTRY, CHINESE ACADEMY OF …, priority 2019, dated 2026)
